Molecular target: human APJ receptor (Homo sapiens (Human), UniProt P35414)
Experiment: [35S]GTPγS binding assay on membranes from CHO cells stably expressing human APJ receptor
Assay type: biochemical
Settings: read-out: Activity hAPJ SPA EC50 IP
Method in brief: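 Agonist-driven [35S]GTPγS (0.2 nM) binding was measured over 90 min at room temperature on human APJ-expressing CHO membranes with bead capture, in buffer containing 3 μM GDP, 200 mM NaCl and 5 mM MgCl2 (pH 7.5). Excess unlabelled GTPγS (100 μM) gave nonspecific signal; EC50 from non-linear fits.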

Sequence of human APJ receptor (P35414 whole entry): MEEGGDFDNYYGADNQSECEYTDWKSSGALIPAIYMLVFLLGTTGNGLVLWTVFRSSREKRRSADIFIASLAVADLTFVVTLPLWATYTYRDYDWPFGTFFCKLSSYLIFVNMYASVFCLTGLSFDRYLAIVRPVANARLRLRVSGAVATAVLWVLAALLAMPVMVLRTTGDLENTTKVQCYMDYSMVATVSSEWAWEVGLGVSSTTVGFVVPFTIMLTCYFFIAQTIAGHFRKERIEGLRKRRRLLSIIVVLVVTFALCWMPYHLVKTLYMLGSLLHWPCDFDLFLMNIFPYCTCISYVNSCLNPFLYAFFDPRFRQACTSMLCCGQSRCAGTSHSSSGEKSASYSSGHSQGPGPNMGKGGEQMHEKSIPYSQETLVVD

| Substance | EC50 [nM] |
| --- | --- |
| (1S,2S)-N-(4-(4,6-dimethoxypyrimidin-5-yl)-5-((R)-tetrahydrofuran-3-yl)-4H-1,2,4-triazol-3-yl)-1-(5-fluoropyrimidin-2-yl)-1-isopropoxypropane-2-sulfonamide or (1S,2S)-N-(4-(4,6-dimethoxypyrimidin-5-yl)-5-((S)-tetrahydrofuran-3-yl)-4H-1,2,4-triazol-3-yl)-1-(5-fluoropyrimidin-2-yl)-1-isopropoxypropane-2-sulfonamide [Example 321.0] | 68 |
| (1S,2S)-N-(4-(4,6-dimethoxypyrimidin-5-yl)-5-((R)-tetrahydrofuran-3-yl)-4H-1,2,4-triazol-3-yl)-1-(5-fluoropyrimidin-2-yl)-1-isopropoxypropane-2-sulfonamide or (1S,2S)-N-(4-(4,6-dimethoxypyrimidin-5-yl)-5-((S)-tetrahydrofuran-3-yl)-4H-1,2,4-triazol-3-yl)-1-(5-fluoropyrimidin-2-yl)-1-isopropoxypropane-2-sulfonamide [Example 322.0] | 310 |
| (1S,2S)-N-(4-(4,6-dimethoxypyrimidin-5-yl)-5-((R)-tetrahydrofuran-3-yl)-4H-1,2,4-triazol-3-yl)-1-isopropoxy-1-(5-methylpyridin-2-yl)propane-2-sulfonamide or (1S,2S)-N-(4-(4,6-dimethoxypyrimidin-5-yl)-5-((S)-tetrahydrofuran-3-yl)-4H-1,2,4-triazol-3-yl)-1-isopropoxy-1-(5-methylpyridin-2-yl)propane-2-sulfonamide [Example 323.0] | 47 |
| (1S,2S)-N-(4-(4,6-dimethoxypyrimidin-5-yl)-5-((R)-tetrahydrofuran-3-yl)-4H-1,2,4-triazol-3-yl)-1-isopropoxy-1-(5-methylpyridin-2-yl)propane-2-sulfonamide or (1S,2S)-N-(4-(4,6-dimethoxypyrimidin-5-yl)-5-((S)-tetrahydrofuran-3-yl)-4H-1,2,4-triazol-3-yl)-1-isopropoxy-1-(5-methylpyridin-2-yl)propane-2-sulfonamide [Example 324.0] | 380 |
| (2R)-N-(4-(2,6-dimethoxyphenyl)-5-(tetrahydro-2H-pyran-4-yl)-4H-1,2,4-triazol-3-yl)-1-(5-fluoro-2-pyrimidinyl)-2-propanesulfonamide and (2S)-N-(4-(2,6-dimethoxyphenyl)-5-(tetrahydro-2H-pyran-4-yl)-4H-1,2,4-triazol-3-yl)-1-(5-fluoro-2-pyrimidinyl)-2-propanesulfonamide [Example 15.0] | 470 |
| (2R)-N-(4-(2,6-dimethoxyphenyl)-5-(tetrahydro-2H-pyran-4-yl)-4H-1,2,4-triazol-3-yl)-1-(5-fluoro-2-pyrimidinyl)-2-propanesulfonamide or (2S)-N-(4-(2,6-dimethoxyphenyl)-5-(tetrahydro-2H-pyran-4-yl)-4H-1,2,4-triazol-3-yl)-1-(5-fluoro-2-pyrimidinyl)-2-propanesulfonamide [Example 16.0] | 380 |
| (2R,3S)-N-(4-(2,6-dimethoxyphenyl)-5-((S)-tetrahydrofuran-2-yl)-4H-1,2,4-triazol-3-yl)-3-(5-methylpyrimidin-2-yl)butane-2-sulfonamide or (2R,3S)-N-(4-(2,6-dimethoxyphenyl)-5-((R)-tetrahydrofuran-2-yl)-4H-1,2,4-triazol-3-yl)-3-(5-methylpyrimidin-2-yl)butane-2-sulfonamide [Example 219.0] | 220 |
| (2R,3S)-N-(4-(2,6-dimethoxyphenyl)-5-((S)-tetrahydrofuran-2-yl)-4H-1,2,4-triazol-3-yl)-3-(5-methylpyrimidin-2-yl)butane-2-sulfonamide or (2R,3S)-N-(4-(2,6-dimethoxyphenyl)-5-((R)-tetrahydrofuran-2-yl)-4H-1,2,4-triazol-3-yl)-3-(5-methylpyrimidin-2-yl)butane-2-sulfonamide [Example 220.0] | 510 |
| (2S,3R)-3-(5-Chloropyrimidin-2-yl)-N-(4-(3,5-dibromo-2,6-dimethoxyphenyl)-5-((R)-tetrahydrofuran-3-yl)-4H-1,2,4-triazol-3-yl)butane-2-sulfonamide or (2S,3R)-3-(5-chloropyrimidin-2-yl)-N-(4-(3,5-dibromo-2,6-dimethoxyphenyl)-5-((S)-tetrahydrofuran-3-yl)-4H-1,2,4-triazol-3-yl)butane-2-sulfonamide [Example 254.0] | 310 |

Second part, the substance after the results:

| EC50 [nM] | Substance |
| --- | --- |
| 430 | (1S,2S)-N-(4-(1,3-dimethoxy-2-propanyl)-5-((2R,5R)-5-methyltetrahydro-2-furanyl)-4H-1,2,4-triazol-3-yl)-1-(5-methyl-2-pyrimidinyl)-1-(2-propanyloxy)-2-propanesulfonamide or (1S,2S)-N-(4-(1,3-dimethoxy-2-propanyl)-5-((2S,5S)-5-methyltetrahydro-2-furanyl)-4H-1,2,4-triazol-3-yl)-1-(5-methyl-2-pyrimidinyl)-1-(2-propanyloxy)-2-propanesulfonamide [Example 358.0] |
| 11 | (1S,2S)-N-(4-(1,3-dimethoxy-2-propanyl)-5-((2R,5R)-5-methyltetrahydro-2-furanyl)-4H-1,2,4-triazol-3-yl)-1-(5-methyl-2-pyrimidinyl)-1-(2-propanyloxy)-2-propanesulfonamide or (1S,2S)-N-(4-(1,3-dimethoxy-2-propanyl)-5-((2S,5S)-5-methyltetrahydro-2-furanyl)-4H-1,2,4-triazol-3-yl)-1-(5-methyl-2-pyrimidinyl)-1-(2-propanyloxy)-2-propanesulfonamide [Example 359.0] |
| 10 | (1S,2S)-N-(4-(2,6-dimethoxyphenyl)-5-((3R)-tetrahydro-3-furanyl)-4H-1,2,4-triazol-3-yl)-1-(5-methyl-2-pyridinyl)-1-(2-propanyloxy)-2-propanesulfonamide or (1S,2S)-N-(4-(2,6-dimethoxyphenyl)-5-((3S)-tetrahydro-3-furanyl)-4H-1,2,4-triazol-3-yl)-1-(5-methyl-2-pyridinyl)-1-(2-propanyloxy)-2-propanesulfonamide [Example 407.0] |
| 15 | (1S,2S)-N-(4-(2,6-dimethoxyphenyl)-5-((S)-1,4-dioxan-2-yl)-4H-1,2,4-triazol-3-yl)-1-isopropoxy-1-(5-methylpyrimidin-2-yl)propane-2-sulfonamide and (1S,2S)-N-(4-(2,6-dimethoxyphenyl)-5-((R)-1,4-dioxan-2-yl)-4H-1,2,4-triazol-3-yl)-1-isopropoxy-1-(5-methylpyrimidin-2-yl)propane-2-sulfonamide [Example 256.0] |
| 0.62 | (1S,2S)-N-(4-(2,6-dimethoxyphenyl)-5-((S)-5,5-dimethyltetrahydrofuran-2-yl)-4H-1,2,4-triazol-3-yl)-1-isopropoxy-1-(5-methylpyrimidin-2-yl)propane-2-sulfonamide or (1S,2S)-N-(4-(2,6-dimethoxyphenyl)-5-((R)-5,5-dimethyltetrahydrofuran-2-yl)-4H-1,2,4-triazol-3-yl)-1-isopropxy-1-(5-methylpyrimidin-2-yl)propane-2-sulfonamide [Example 210.0] |
| 530 | (1S,2S)-N-(4-(4,6-dimethoxypyrimidin-5-yl)-5-((R)-5,5-dimethyltetrahydrofuran-3-yl)-4H-1,2,4-triazol-3-yl)-1-isopropoxy-1-(5-methylpyrimidin-2-yl)propane-2-sulfonamide or (1S,2S)-N-(4-(4,6-dimethoxypyrimidin-5-yl)-5-((S)-5,5-dimethyltetrahydrofuran-3-yl)-4H-1,2,4-triazol-3-yl)-1-isopropoxy-1-(5-methylpyrimidin-2-yl)propane-2-sulfonamide [Example 313.0] |
| 71 | (1S,2S)-N-(4-(4,6-dimethoxypyrimidin-5-yl)-5-((R)-5,5-dimethyltetrahydrofuran-3-yl)-4H-1,2,4-triazol-3-yl)-1-isopropoxy-1-(5-methylpyrimidin-2-yl)propane-2-sulfonamide or (1S,2S)-N-(4-(4,6-dimethoxypyrimidin-5-yl)-5-((S)-5,5-dimethyltetrahydrofuran-3-yl)-4H-1,2,4-triazol-3-yl)-1-isopropoxy-1-(5-methylpyrimidin-2-yl)propane-2-sulfonamide [Example 314.0] |
| 810 | (2R)-N-(4-(2,6-dimethoxyphenyl)-5-(tetrahydro-2H-pyran-4-yl)-4H-1,2,4-triazol-3-yl)-1-(5-fluoro-2-pyrimidinyl)-2-propanesulfonamide or (2S)-N-(4-(2,6-dimethoxyphenyl)-5-(tetrahydro-2H-pyran-4-yl)-4H-1,2,4-triazol-3-yl)-1-(5-fluoro-2-pyrimidinyl)-2-propanesulfonamide [Example 17.0] |
| 92 | (2S,3R)-3-(5-chloro-2-pylimidinyl)-N-(4-(1,3-dimethoxy-2-propanyl)-5-((2R,5R)-5-methyltetrahydro-2-furanyl)-4H-1,2,4-triazol-3-yl)-2-butanesulfonamide or (2S,3R)-3-(5-chloro-2-pyrimidinyl)-N-(4-(1,3-dimethoxy-2-propanyl)-5-((2S,5S)-5-methyltetrahydro-2-furanyl)-4H-1,2,4-triazol-3-yl)-2-butanesulfonamide [Example 375.0] |
| 240 | (2S,3R)-3-(5-chloro-2-pyridinyl)-N-(4-(1,3-dimethoxy-2-propanyl)-5-((2R,5R)-5-methyltetrahydro-2-furanyl)-4H-1,2,4-triazol-3-yl)-2-butanesulfonamide or (2S,3R)-3-(5-chloro-2-pyridinyl)-N-(4-(1,3-dimethoxy-2-propanyl)-5-((2S,5S)-5-methyltetrahydro-2-furanyl)-4H-1,2,4-triazol-3-yl)-2-butanesulfonamide [Example 372.0] |

Source: patent publication US10150760B2, “Compounds for use in preparing heterocyclic triazole agonists of the APJ receptor” (AMGEN INC., priority 2016, dated 2018)
